Results reported in US20240391923A1, “METHIONINE ADENOSYLTRANSFERASE 2A INHIBITOR FOR TREATING MTAP DELETION-TYPE CANCER” (SUZHOU GENHOUSE BIO CO., LTD., priority 2022, published 2024).
Where two headings read alike, the source gives them in different places.

Assays:
[1] = target: MAT2A recombinant protein (Homo sapiens, UniProt P31153); experiment: MAT2A inhibitory activity (malachite green colorimetric enzyme assay); assay type: biochemical
Description: MAT2A catalyzes the reaction of L-methionine and ATP to generate S-adenosylmethionine (SAM), inorganic phosphonic acid, and inorganic diphosphonic acid. Malachite green reacts with inorganic phosphonic acid to generate a green product, and the enzyme activity of MAT2A can be indirectly reflected by detecting the content of the inorganic phosphonic acid in a sample.
The test compounds were formulated using DMSO and diluted 1:3 diluted through 10 concentration points to give a final starting concentration in the reaction system of 1000 nM. The test compounds at different concentrations described above were transferred to a 384-well plate. Experimental buffer (50 mM HEPES pH 7.5, 50 mM KCl, 10 mM MgCl2, 10 mM DTT) was prepared. 2×MAT2A recombinant protein was prepared using the buffer and added to a 384-well plate. A mixed solution of 2×L-methionine and ATP was prepared using the buffer, and added to a 384-well plate. The enzymatic reaction was started, and the reaction was carried out at room temperature for 60 min. 20 μL of a colorimetric detection reagent was added to the above system, and incubated at room temperature for 15 min. The absorbance at 630 nm was measured. The inhibition rate of the compound on the enzyme activity was calculated, and the inhibition rate value and the logarithm value of the compound concentration were fitted using non-linear regression (dose response-variable slope) to give the IC50 value of the test compound.

[2] = tested on: SDMA in HCT116-MTAP-knockout cell line; experiment: Cell symmetric dimethylarginine (SDMA) test, In-cell Western, HCT116-MTAP-knockout; assay type: cell-based; conditions: Homo sapiens, 96 h
[3] = tested on: SDMA in human colon cancer cell line HCT116; experiment: Cell symmetric dimethylarginine (SDMA) test, In-cell Western, HCT116 (MTAP wild-type); assay type: cell-based; conditions: Homo sapiens, HCT-116, 96 h
Description: MAT2A catalyzes the reaction of L-methionine and ATP to generate SAM, inorganic phosphonic acid, and inorganic diphosphonic acid. SAM is an important methyl donor, and is a substrate of arginine methyltransferase 5 (PRMT5). PRMT5 catalyzes SDMA modification of multiple proteins within a cell. The intracellular SDMA modification level was detected by ICW (In-cell Western), and the inhibition of the test compound on the enzymatic activity of intracellular MAT2A was indirectly reflected.
In the present application, the human colon cancer cell line HCT116 and the corresponding HCT116-MTAP-knockout cell line were seeded into a 96-well cell culture plate at an appropriate cell density. After 24 h, the cells were treated using the test compounds diluted 1:4 fold at the highest concentration of 6 μM for 6 gradients, and a DMSO treatment group was set up separately. The cells were cultured in a 37° C./5% CO2 incubator for 4 days. To test the inhibitory activity of the test compounds against tumor cell SDMA, the medium was discarded, and the plate was washed 3 times with PBST. 4% paraformaldehyde was then used at room temperature for fixation for 20 min. The fixation solution was discarded, the plate was washed 3 times with PBST, and a special blocking solution was added to each well for blocking at room temperature for 2 h. The blocking solution was discarded. After the plate was washed 3 times with PBST, the plate was incubated with SDMA antibody at 4° C. overnight. The next day, the plate was washed 3 times with PBST. The secondary antibody and DRAQ5 were diluted to an appropriate concentration with the blocking solution, and incubated at room temperature for 2 h; the plate was washed 3 times with PBST, and the fluorescence signals at 700 nm and 800 nm were detected using a Li—COR Odyssey two-color near-infrared laser imager.
The data was then processed. After the corresponding background value was subtracted from each well, statistical analysis was performed on the 800 nm/700 nm ratio for each well, a sigmoidal dose-inhibition curve was plotted using a non-linear regression model, and IC50 values were fitted and calculated. Inhibition Rate (%)=(1−SDMA dose/SDMA DMSO control)*100. SDMA dose is the value of the drug treatment group, and SDMA DMSO control is the value of the DMSO control group.

[4] = IC50 score class, read-out: MAT2A Inhibition (score)
[5] = IC50 score class, read-out: Cell 96 h SDMA Inhibition (HCT116-MTAP−/−) (score)
[6] = read-out: Cell 96 h SDMA Inhibition (HCT116-MTAP−/−)
[7] = IC50 score class, read-out: Cell 96 h SDMA Inhibition (HCT116-MTAP+/+) (score)
[8] = read-out: Cell 96 h SDMA inhibition (HCT116-MTAP+/+)

Chain of MAT2A recombinant protein (P31153 whole entry): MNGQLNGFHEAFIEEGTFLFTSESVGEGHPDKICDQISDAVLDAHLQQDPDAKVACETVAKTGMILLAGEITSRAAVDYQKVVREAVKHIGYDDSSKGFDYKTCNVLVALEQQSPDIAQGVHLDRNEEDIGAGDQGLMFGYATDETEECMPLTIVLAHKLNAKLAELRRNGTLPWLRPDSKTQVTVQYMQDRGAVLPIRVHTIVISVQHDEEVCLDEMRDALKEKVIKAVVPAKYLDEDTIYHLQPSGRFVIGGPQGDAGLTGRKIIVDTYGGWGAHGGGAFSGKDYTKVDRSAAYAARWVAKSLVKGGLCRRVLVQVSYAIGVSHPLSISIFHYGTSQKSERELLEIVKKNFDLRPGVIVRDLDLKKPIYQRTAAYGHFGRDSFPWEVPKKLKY

| Compound | IC50 [1, 4] [nM] | IC50 ([1]; read-out: MAT2A Inhibition) [nM] | IC50 [2, 5] [nM] | IC50 [2, 6] [nM] | IC50 [3, 7] [nM] | IC50 [3, 8] [nM] |
| --- | --- | --- | --- | --- | --- | --- |
| CCn1cc2c(n1)c(=O)n(-c1cccnc1)c1cc(OC(F)(F)F)ccc21 [Compound B19] | 100 to 1000 | 125 |  |  |  |  |
| Cn1cc2c(n1)c(=O)n(-c1ccc3ncoc3c1)c1nc(C(F)(F)F)ccc21 [Compound B209] | 100 to 1000 | 122 |  |  |  |  |
| Cn1cc2c(n1)c(=O)n(-c1cccc(OC(F)F)c1)c1nc(C(F)(F)F)ccc21 [Compound B190] | 100 to 1000 | 133 |  |  |  |  |
| O=c1c2nn(C3CCOCC3)cc2c2ccc(C(F)(F)F)nc2n1-c1cccnc1 [Compound B210] | 100 to 1000 | 603 |  |  |  |  |
| COc1ccc(-n2c(=O)c3nn(C)cc3c3ccc(Cl)cc32)cc1 [Compound B185] | 100 to 1000 | 379 |  |  |  |  |
| O=c1c2nccnc2c2ccc(Cl)cc2n1-c1cccnc1 [Compound B50] | 100 to 1000 | 488 |  |  |  |  |
| O=c1c2nn(C(F)F)cc2c2cc(F)c(Cl)cc2n1-c1cccnc1C(F)(F)F [Compound B339] |  |  | 200 to 1000 | 203 | > 3000 | > 10000 |
| Cn1nc2c(=O)n(-c3cccnc3)c3cc(Cl)ccc3c2c1C(F)(F)F [Compound B26] | 100 to 1000 | 349 |  |  |  |  |
| Cn1cc2c(n1)c(=O)n(-c1cccnc1)c1cc(OC(F)(F)F)ccc21 [Compound B78] |  |  | 200 to 1000 | 813 | 1000 to 3000 | 2030 |
| Cc1nnc2c(=O)n(-c3cccnc3)c3cc(Cl)ccc3n12 [Compound B23] | 100 to 1000 | 908 |  |  |  |  |
| COc1cccc(-n2c(=O)c3nn(C)cc3c3ccc(C(F)(F)F)nc32)c1 [Compound B184] | 100 to 1000 | 174 |  |  |  |  |
| Cn1cc2c(n1)c(=O)n([C@H]1CC[C@H](O)CC1)c1cc(Cl)ccc21 [Compound B109] | 100 to 1000 | 483 |  |  |  |  |

The next lines start with the values.

| IC50 [1, 4] [nM] | IC50 ([1]; read-out: MAT2A Inhibition) [nM] | IC50 [2, 5] [nM] | IC50 [2, 6] [nM] | IC50 [3, 7] [nM] | IC50 [3, 8] [nM] | Compound |
| --- | --- | --- | --- | --- | --- | --- |
| < 100 | 90.4 |  |  |  |  | Cn1cc2c(n1)c(=O)n(Cc1cn[nH]c1)c1nc(C(F)(F)F)ccc21 [Compound B197] |
| < 100 | 43.7 |  |  |  |  | Cn1cc2c(n1)c(=O)n(-c1cccc(C(F)F)c1)c1nc(C(F)(F)F)ccc21 [Compound B194] |
| 100 to 1000 | 188 |  |  |  |  | COc1ccc(Cn2cc3c(n2)c(=O)n(-c2cccc4[nH]ncc24)c2cc(Cl)c(C#N)cc32)cc1 [Compound B286] |
| < 100 | 37.4 | 200 to 1000 | 775 | > 3000 | 6800 | Cn1cc2c(n1)c(=O)n(-c1cccnc1)c1cc(Cl)c(F)cc21 [Compound B139] |
| 100 to 1000 | 237 |  |  |  |  | Cn1cc2c(n1)c(=O)n([C@@H]1CCCOC1)c1cc(Cl)ccc21 [Compound B230] |
| 100 to 1000 | 191 |  |  |  |  | Cn1cc2c(n1)c(=O)n(-c1ccc(OC(F)F)cc1)c1cc(Cl)ccc21 [Compound B186] |
| < 100 | 20 |  |  |  |  | Cn1cc2c(n1)c(=O)n(-c1c(F)cccc1F)c1nc(C(F)(F)F)ccc21 [Compound B195] |
| < 100 | 41.9 |  |  |  |  | Cn1cc2c(n1)c(=O)n(Cc1ccn[nH]1)c1cc(Cl)ccc21 [Compound B117] |
| < 100 | 102 |  |  |  |  | Cn1cc2c(n1)c(=O)n(-c1cccnc1)c1nc(Cl)ccc21 [Compound B244] |
| < 100 | 97.4 |  |  |  |  | Cn1cc2c(n1)c(=O)n(-c1cccc(O)c1)c1cc(OC(F)(F)F)ccc21 [Compound B169] |
